PubChem BioAssay AID2060501 (Molecular Pharmacology Branch, DTP, NCI, 2025)

Test system: 282377-053-R-J1-PDC complex spheroids, viability
Assay: Anticancer human tumor 282377-053-R-J1-PDC patient-derived colon adenocarcinoma cell line growth inhibition [GQUAD]
Details: for IC50: curve of first compound; for viability, T/C: stronger effect = lower value
Outline: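 Multi-cell-type spheroids of tumor cells with HUVEC and mesenchymal stem cells, treated with drug combinations. Concentrations descend in half-log steps from near clinical Cmax, or from 10 microM where Cmax is unknown; viability read-out.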

[1] = second compound 0.0316 µM, first compound 0.0316 µM
[2] = second compound 0.0316 µM, first compound 0.316 µM
[3] = second compound 0.1 µM, first compound 0.0316 µM
[4] = second compound 0.1 µM, first compound 0.316 µM
[5] = second compound 0.316 µM, first compound 0.0316 µM
[6] = second compound 0.316 µM, first compound 0.316 µM
[7] = second compound 1 µM, first compound 0.0316 µM
[8] = second compound 1 µM, first compound 0.316 µM
[9] = second compound 3.16 µM, first compound 0.0316 µM
[10] = second compound 3.16 µM, first compound 0.316 µM
[11] = second compound 10 µM, first compound 0.0316 µM
[12] = second compound 10 µM, first compound 0.316 µM
[13] = second compound 0.0316 µM, first compound 0.1 µM
[14] = second compound 0.0316 µM, first compound 1 µM
[15] = second compound 0.0316 µM, first compound 3.16 µM
[16] = second compound 0.0316 µM, first compound 10 µM
[17] = second compound 0.1 µM, first compound 0.1 µM
[18] = second compound 0.1 µM, first compound 1 µM
[19] = second compound 0.1 µM, first compound 3.16 µM
[20] = second compound 0.1 µM, first compound 10 µM
[21] = second compound 0.316 µM, first compound 0.1 µM
[22] = second compound 0.316 µM, first compound 1 µM
[23] = second compound 0.316 µM, first compound 3.16 µM
[24] = second compound 0.316 µM, first compound 10 µM
[25] = second compound 1 µM, first compound 0.1 µM
[26] = second compound 1 µM, first compound 1 µM
[27] = second compound 1 µM, first compound 3.16 µM
[28] = second compound 1 µM, first compound 10 µM
[29] = second compound 3.16 µM, first compound 0.1 µM
[30] = second compound 3.16 µM, first compound 1 µM
[31] = second compound 3.16 µM, first compound 3.16 µM
[32] = second compound 3.16 µM, first compound 10 µM
[33] = second compound 10 µM, first compound 0.1 µM
[34] = second compound 10 µM, first compound 1 µM
[35] = second compound 10 µM, first compound 3.16 µM
[36] = second compound 10 µM, first compound 10 µM
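Note: spheroids exposed to compounds for 7 days before readout.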
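Throughout, for viability, T/C: percent of vehicle DMSO control viability with 100% = untreated-like growth.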

CCc1c2c(nc3ccc(O)cc13)-c1cc3c(c(=O)n1C2)COC(=O)[C@]3(O)CC + Cc1[nH]c2ccc(F)cc2c1-c1nc2c3cccnc3c3ncccc3c2[nH]1
IC50 (second compound 0.0316 µM): 27.8 nM | IC50 (second compound 0.1 µM): 26.7 nM | IC50 (second compound 0.316 µM): 35.2 nM | IC50 (second compound 1 µM): 20.5 nM | IC50 (second compound 3.16 µM): 3.28 nM | IC50 (second compound 10 µM): < 0.999 nM | viability, T/C (second compound 0.0316 µM, first compound 0.000999 µM): 125% | viability, T/C (second compound 0.0316 µM, first compound 0.00316 µM): 79.7% | viability, T/C (second compound 0.0316 µM, first compound 0.00999 µM): 65.6% | viability, T/C [1]: 54.4% | viability, T/C (second compound 0.0316 µM, first compound 0.0999 µM): 37.9% | viability, T/C [2]: 29.4% | viability, T/C (second compound 0.1 µM, first compound 0.000999 µM): 112% | viability, T/C (second compound 0.1 µM, first compound 0.00316 µM): 99.3% | viability, T/C (second compound 0.1 µM, first compound 0.00999 µM): 64% | viability, T/C [3]: 49.8% | viability, T/C (second compound 0.1 µM, first compound 0.0999 µM): 34.2% | viability, T/C [4]: 25.5% | viability, T/C (second compound 0.316 µM, first compound 0.000999 µM): 107% | viability, T/C (second compound 0.316 µM, first compound 0.00316 µM): 83.3% | viability, T/C (second compound 0.316 µM, first compound 0.00999 µM): 64.4% | viability, T/C [5]: 47.9% | viability, T/C (second compound 0.316 µM, first compound 0.0999 µM): 46.8% | viability, T/C [6]: 26.9% | viability, T/C (second compound 1 µM, first compound 0.000999 µM): 87.2% | viability, T/C (second compound 1 µM, first compound 0.00316 µM): 77.6% | viability, T/C (second compound 1 µM, first compound 0.00999 µM): 52.6% | viability, T/C [7]: 47% | viability, T/C (second compound 1 µM, first compound 0.0999 µM): 36.6% | viability, T/C [8]: 25.9% | viability, T/C (second compound 3.16 µM, first compound 0.000999 µM): 71.5% | viability, T/C (second compound 3.16 µM, first compound 0.00316 µM): 51% | viability, T/C (second compound 3.16 µM, first compound 0.00999 µM): 33.4% | viability, T/C [9]: 25.9% | viability, T/C (second compound 3.16 µM, first compound 0.0999 µM): 17.1% | viability, T/C [10]: 11.8% | viability, T/C (second compound 10 µM, first compound 0.000999 µM): 21.1% | viability, T/C (second compound 10 µM, first compound 0.00316 µM): 29.2% | viability, T/C (second compound 10 µM, first compound 0.00999 µM): 12.5% | viability, T/C [11]: 8.86% | viability, T/C (second compound 10 µM, first compound 0.0999 µM): 9.45% | viability, T/C [12]: 8.4%

COc1cc(C2c3cc4c(cc3C(OC3OC5COC(C)OC5C(O)C3O)C3COC(=O)C23)OCO4)cc(OC)c1O (stereo unspecified) + Cc1[nH]c2ccc(F)cc2c1-c1nc2c3cccnc3c3ncccc3c2[nH]1
IC50 (second compound 0.0316 µM): > 10000 nM | IC50 (second compound 0.1 µM): > 10000 nM | IC50 (second compound 0.316 µM): > 10000 nM | IC50 (second compound 1 µM): > 10000 nM | IC50 (second compound 3.16 µM): 1230 nM | IC50 (second compound 10 µM): 384 nM | viability, T/C [1]: 99.9% | viability, T/C [13]: 102% | viability, T/C [2]: 104% | viability, T/C [14]: 89% | viability, T/C [15]: 66.5% | viability, T/C [16]: 62.6% | viability, T/C [3]: 94.3% | viability, T/C [17]: 108% | viability, T/C [4]: 83.5% | viability, T/C [18]: 98.2% | viability, T/C [19]: 76.4% | viability, T/C [20]: 70.1% | viability, T/C [5]: 102% | viability, T/C [21]: 117% | viability, T/C [6]: 96.2% | viability, T/C [22]: 105% | viability, T/C [23]: 76.9% | viability, T/C [24]: 54.2% | viability, T/C [7]: 113% | viability, T/C [25]: 95.5% | viability, T/C [8]: 95.2% | viability, T/C [26]: 94.1% | viability, T/C [27]: 72% | viability, T/C [28]: 54.4% | viability, T/C [9]: 72.5% | viability, T/C [29]: 85.6% | viability, T/C [10]: 73.5% | viability, T/C [30]: 56% | viability, T/C [31]: 24.8% | viability, T/C [32]: 23.2% | viability, T/C [11]: 52.7% | viability, T/C [33]: 44% | viability, T/C [12]: 63.8% | viability, T/C [34]: 32.7% | viability, T/C [35]: 16.1% | viability, T/C [36]: 17.5%

COc1cccc2c1C(=O)c1c(O)c3c(c(O)c1C2=O)CC(O)(C(=O)CO)CC3OC1CC(N)C(O)C(C)O1 (stereo unspecified) + Cc1[nH]c2ccc(F)cc2c1-c1nc2c3cccnc3c3ncccc3c2[nH]1
IC50 (second compound 0.0316 µM): 1350 nM | IC50 (second compound 0.1 µM): 1320 nM | IC50 (second compound 0.316 µM): 1080 nM | IC50 (second compound 1 µM): 991 nM | IC50 (second compound 3.16 µM): 222 nM | IC50 (second compound 10 µM): < 31.6 nM | viability, T/C [1]: 108% | viability, T/C [13]: 99.2% | viability, T/C [2]: 86.4% | viability, T/C [14]: 64.1% | viability, T/C [15]: 18.5% | viability, T/C [16]: 1.16% | viability, T/C [3]: 94.4% | viability, T/C [17]: 114% | viability, T/C [4]: 81.3% | viability, T/C [18]: 64% | viability, T/C [19]: 16.8% | viability, T/C [20]: 1.17% | viability, T/C [5]: 98.1% | viability, T/C [21]: 129% | viability, T/C [6]: 83.4% | viability, T/C [22]: 54% | viability, T/C [23]: 16.8% | viability, T/C [24]: 0.84% | viability, T/C [7]: 106% | viability, T/C [25]: 116% | viability, T/C [8]: 85.3% | viability, T/C [26]: 47.3% | viability, T/C [27]: 22% | viability, T/C [28]: 0.99% | viability, T/C [9]: 78% | viability, T/C [29]: 74.3% | viability, T/C [10]: 32% | viability, T/C [30]: 29.8% | viability, T/C [31]: 9.5% | viability, T/C [32]: 0.94% | viability, T/C [11]: 36.5% | viability, T/C [33]: 47.2% | viability, T/C [12]: 23.8% | viability, T/C [34]: 18.4% | viability, T/C [35]: 7.13% | viability, T/C [36]: 0.99%
